≈ marks a conversion by molar mass, not a printed value.
How the values were obtained:
Type in all cases: functional
[1] = test system: Staphylococcus aureus; test: Antimicrobial activity against Staphylococcus aureus MTCC 96 assessed as growth inhibition after 24 hr by agar streak dilution method; details: MTCC 96, 24 h
[2] = test system: Pseudomonas aeruginosa; test: Antimicrobial activity against Pseudomonas aeruginosa MTCC 741 assessed as diameter of growth inhibition zone after 24 hr
[3] = test system: Aspergillus niger; test: Antimicrobial activity against Aspergillus niger MTCC 282 assessed as growth inhibition after 48 hr by agar streak dilution method; details: MTCC 282, 48 h
[4] = test system: Pseudomonas aeruginosa; test: Antimicrobial activity against Pseudomonas aeruginosa MTCC 741 assessed as growth inhibition after 24 hr by agar streak dilution method; details: MTCC 741, 24 h
[5] = test system: Bacillus cereus; test: Antimicrobial activity against Bacillus cereus MTCC 430 assessed as growth inhibition after 24 hr by agar streak dilution method; details: MTCC 430, 24 h
[6] = test system: Salmonella typhi; test: Antimicrobial activity against Salmonella enterica subsp. enterica serovar Typhi MTCC 733 assessed as diameter of growth inhibition zone after 24 hr
[7] = test system: Mycobacterium tuberculosis; test: Antituberculosis activity against Mycobacterium tuberculosis H37Rv assessed as growth inhibition after 12 to 28 days by L-J MIC method; details: for MIC: Mycobacterium tuberculosis, H37Rv
[8] = test system: Candida albicans; test: Antimicrobial activity against Candida albicans MTCC 183 assessed as diameter of growth inhibition zone after 48 hr
[9] = test system: Klebsiella pneumoniae; test: Antimicrobial activity against Klebsiella pneumoniae MTCC 109 assessed as diameter of growth inhibition zone after 24 hr
[10] = test system: Shigella flexneri; test: Antimicrobial activity against Shigella flexneri MTCC1457 assessed as diameter of growth inhibition zone after 24 hr
[11] = test system: Salmonella typhi; test: Antimicrobial activity against Salmonella enterica subsp. enterica serovar Typhi MTCC 733 assessed as growth inhibition after 24 hr by agar streak dilution method; details: MTCC 733, 24 h
[12] = test system: Aspergillus niger; test: Antimicrobial activity against Aspergillus niger MTCC 282 assessed as diameter of growth inhibition zone after 48 hr
[13] = test system: Bacillus cereus; test: Antimicrobial activity against Bacillus cereus MTCC 430 assessed as diameter of growth inhibition zone after 24 hr
[14] = test system: Aspergillus fumigatus; test: Antimicrobial activity against Aspergillus fumigatus MTCC 343 assessed as growth inhibition after 48 hr by agar streak dilution method; details: MTCC 343, 48 h
[15] = test system: Escherichia coli; test: Antimicrobial activity against Escherichia coli MTCC 739 assessed as diameter of growth inhibition zone after 24 hr
[16] = test system: Escherichia coli; test: Antimicrobial activity against Escherichia coli MTCC 739 assessed as growth inhibition after 24 hr by agar streak dilution method; details: MTCC 739, 24 h
[17] = test system: Proteus vulgaris; test: Antimicrobial activity against Proteus vulgaris MTCC 1771 assessed as growth inhibition after 24 hr by agar streak dilution method; details: MTCC 1771, 24 h
[18] = test system: Proteus vulgaris; test: Antimicrobial activity against Proteus vulgaris MTCC 1771 assessed as diameter of growth inhibition zone after 24 hr
[19] = test system: Aspergillus clavatus; test: Antimicrobial activity against Aspergillus clavatus MTCC 1323 assessed as growth inhibition after 48 hr by agar streak dilution method; details: MTCC 1323, 48 h
[20] = test system: Aspergillus fumigatus; test: Antimicrobial activity against Aspergillus fumigatus MTCC 343 assessed as diameter of growth inhibition zone after 48 hr
[21] = test system: Candida albicans; test: Antimicrobial activity against Candida albicans MTCC 183 assessed as growth inhibition after 48 hr by agar streak dilution method; details: MTCC 183, 48 h
[22] = test system: Aspergillus clavatus; test: Antimicrobial activity against Aspergillus clavatus MTCC 1323 assessed as diameter of growth inhibition zone after 48 hr
[23] = test system: Staphylococcus aureus; test: Antimicrobial activity against Staphylococcus aureus MTCC 96 assessed as diameter of growth inhibition zone after 24 hr
[24] = test system: Shigella flexneri; test: Antimicrobial activity against Shigella flexneri MTCC1457 assessed as growth inhibition after 24 hr by agar streak dilution method; details: MTCC1457, 24 h
[25] = test system: Klebsiella pneumoniae; test: Antimicrobial activity against Klebsiella pneumoniae MTCC 109 assessed as growth inhibition after 24 hr by agar streak dilution method; details: MTCC 109, 24 h

SMILES | MIC [1] | diameter of the inhibition zone (DIZ) [2] | MIC [3] | MIC [4] | MIC [5] | diameter of the inhibition zone (DIZ) [6] | growth inhibition (GI) [7] | MIC [7] | diameter of the inhibition zone (DIZ) [8] | diameter of the inhibition zone (DIZ) [9] | diameter of the inhibition zone (DIZ) [10] | MIC [11] | diameter of the inhibition zone (DIZ) [12] | diameter of the inhibition zone (DIZ) [13] | MIC [14] | diameter of the inhibition zone (DIZ) [15] | MIC [16] | MIC [17] | diameter of the inhibition zone (DIZ) [18] | MIC [19] | also measured
CC(=O)N1N=C(c2ccc(Nc3cc(=O)oc4ccccc34)cc2)CC1c1ccc(O)cc1O (stereo not drawn) | 50 µg/mL (≈ 110 µM) | 22 mm | 25 µg/mL (≈ 54.9 µM) | 25 µg/mL (≈ 54.9 µM) | 50 µg/mL (≈ 110 µM) | 21 mm | 97% | 250 µg/mL (≈ 549 µM) | 17 mm | 23 mm | 20 mm | 25 µg/mL (≈ 54.9 µM) | 21 mm | 20 mm | 12.5 µg/mL (≈ 27.4 µM) | 20 mm | 25 µg/mL (≈ 54.9 µM) | 12.5 µg/mL (≈ 27.4 µM) | 22 mm | 25 µg/mL (≈ 54.9 µM) | diameter of the inhibition zone (DIZ) [20]: 24 mm; MIC [21]: 50 µg/mL (≈ 110 µM); diameter of the inhibition zone (DIZ) [22]: 22 mm; diameter of the inhibition zone (DIZ) [23]: 19 mm; MIC [24]: 25 µg/mL (≈ 54.9 µM); MIC [25]: 6.25 µg/mL (≈ 13.7 µM)
Nc1nc(-c2ccc(Nc3cc(=O)oc4ccccc34)cc2)cc(-c2ccc([N+](=O)[O-])cc2)n1 | 100 µg/mL (≈ 222 µM) | 16 mm | 50 µg/mL (≈ 111 µM) | 100 µg/mL (≈ 222 µM) | 100 µg/mL (≈ 222 µM) | 21 mm | 96% | 500 µg/mL (≈ 1110 µM) | 19 mm | 18 mm | 16 mm | 25 µg/mL (≈ 55.4 µM) | 17 mm | 16 mm | 100 µg/mL (≈ 222 µM) | 17 mm | 100 µg/mL (≈ 222 µM) | 100 µg/mL (≈ 222 µM) | 14 mm | 25 µg/mL (≈ 55.4 µM) | diameter of the inhibition zone (DIZ) [20]: 16 mm; MIC [21]: 50 µg/mL (≈ 111 µM); diameter of the inhibition zone (DIZ) [22]: 20 mm; diameter of the inhibition zone (DIZ) [23]: 15 mm; MIC [24]: 100 µg/mL (≈ 222 µM); MIC [25]: 50 µg/mL (≈ 111 µM)
O=C(/C=C/c1ccc(F)cc1)c1ccc(Nc2cc(=O)oc3ccccc23)cc1 | 50 µg/mL (≈ 130 µM) | 16 mm | 50 µg/mL (≈ 130 µM) | 100 µg/mL (≈ 259 µM) | 25 µg/mL (≈ 64.9 µM) | 17 mm | 97% | 250 µg/mL (≈ 649 µM) | 13 mm | 17 mm | 14 mm | 100 µg/mL (≈ 259 µM) | 17 mm | 19 mm | 50 µg/mL (≈ 130 µM) | 18 mm | 50 µg/mL (≈ 130 µM) | 50 µg/mL (≈ 130 µM) | 18 mm | 100 µg/mL (≈ 259 µM) | diameter of the inhibition zone (DIZ) [20]: 19 mm; MIC [21]: 100 µg/mL (≈ 259 µM); diameter of the inhibition zone (DIZ) [22]: 15 mm; diameter of the inhibition zone (DIZ) [23]: 18 mm; MIC [24]: 100 µg/mL (≈ 259 µM); MIC [25]: 100 µg/mL (≈ 259 µM)

Source: ChEMBL document CHEMBL3045446, “In vitro antimicrobial and antimycobacterial activity of some chalcones and their derivatives” (2013)
